The conditions of data set [1]: EDTA co-administered; cited from earlier work.
A short description of data set [2]: Pulmonary absorption of human insulin co-administered intratracheally with P2Y receptor agonists to anesthetized rabbits (plasma insulin by radioimmunoassay). The format is in vivo, New Zealand white rabbits. Conditions: for Effect of the P2Y agonist on t1/2, Cmax and F of insulin administered to the lungs: co-administered with insulin to rabbit lungs, summary in words; for Cmax of insulin / F (bioavailable fraction) of insulin / t1/2 of insulin: rabbit, mean±SD, n=4. The protocol: Briefly, New Zealand white rabbits were anesthetized with Hypnovel (Roche, Welwyn Garden City, UK), 0.3 mg/kg i.v. via cannula in the ear, and Hypnorrn (Janssen Animal Health, Grove, Oxford, UK), 0.1 mg/kg via intramuscular injection. Once intubated with a polyethylene endotracheal tube (i.d. 4 mm, o.d. 5 mm; Portex, UK) coated with a layer of xylocalne gel (Astra Pharmaceuticals, Kings Langley, UK), a second, smaller polyethylene dosing tube was inserted inside the endotracheal tube to the point of the bifurcation of the trachea.

Setting [3] is: insulin 10 U/kg intratracheal with Up4U 0.2 mg (2.0 mg/mL).
The mark [4] stands for this setting: insulin 10 U/kg intratracheal with Up4U 0.62 mg (6.2 mg/mL).

`O=C(O)CN(CCN(CC(=O)O)CC(=O)O)CC(=O)O` [EDTA]: the “Effect on uptake of calcitonin following intratracheal administration to the lungs” value in data set [1] was “did increase”.
Take `O=c1ccn([C@@H]2O[C@H](COP(=O)(O)OP(=O)(O)OP(=O)(O)O)[C@@H](O)[C@H]2O)c(=O)[nH]1` [UTP, uridine 5′-triphosphate]: the “Effect of the P2Y agonist on t1/2, Cmax and F of insulin administered to the lungs” value in data set [2] is “increase the half life (t1/2), maximal plasma concentration (Cmax) and the overall bioavailable fraction (F) of insulin”. Also, the Cmax of insulin in data set [2] (insulin 10 U/kg intratracheal with UTP 0.34 mg (3.4 mg/mL)) was 828 ± 42.4 μU/mL; in data set [2] (insulin 10 U/kg intratracheal with UTP 1.5 mg (15 mg/mL)), 1515 ± 297 μU/mL.
Regarding `O=c1ccn([C@@H]2O[C@H](COP(=O)(O)OP(=O)(O)OP(=O)(O)OP(=O)(O)OC[C@H]3O[C@@H](n4ccc(=O)[nH]c4=O)[C@H](O)[C@@H]3O)[C@@H](O)[C@H]2O)c(=O)[nH]1` [Up4U, P^1,P^4-di(uridine 5′-)tetraphosphate], the “Effect of the P2Y agonist on t1/2, Cmax and F of insulin administered to the lungs” value in data set [2] is “increase the half life (t1/2), maximal plasma concentration (Cmax) and the overall bioavailable fraction (F) of insulin”. Also, in data set [2] (setting [3]), the Cmax of insulin is recorded as 531 ± 89.5 μU/mL, the “F (bioavailable fraction) of insulin” value is recorded as 8.07 ± 3.40% and the t1/2 of insulin was found to be 1.33 ± 0.7102 h. Further, in data set [2] (setting [4]), the Cmax of insulin was 655 ± 46.17 μU/mL, the “F (bioavailable fraction) of insulin” value is 5.47 ± 1.03% and the t1/2 of insulin was determined as 0.798 ± 0.0372 h.

Source of the values: US20090004101A1, “Method and Means for Enhanced Pulmonary Drug Delivery” (UNIVERSITY COLLEGE CARDIFF CONSULTANTS LIMITED, priority 2004, published 2009).
